pIC50: −log10 of the molar value. Like-named read-outs stand apart in the source and are kept apart here.
Legend:
Assay type in all cases: biochemical
KDM4C (JMJD2C) = target: T1, KDM4C (JMJD2C) (Homo sapiens, UniProt Q9H3R0); experiment: Histone lysine demethylase AlphaLISA assay, KDM4C
T1 construct: KDM4C; BRIC, Denmark; 1-349; E. coli; host or cells: E. coli
T1 sequence (Q9H3R0 1-349): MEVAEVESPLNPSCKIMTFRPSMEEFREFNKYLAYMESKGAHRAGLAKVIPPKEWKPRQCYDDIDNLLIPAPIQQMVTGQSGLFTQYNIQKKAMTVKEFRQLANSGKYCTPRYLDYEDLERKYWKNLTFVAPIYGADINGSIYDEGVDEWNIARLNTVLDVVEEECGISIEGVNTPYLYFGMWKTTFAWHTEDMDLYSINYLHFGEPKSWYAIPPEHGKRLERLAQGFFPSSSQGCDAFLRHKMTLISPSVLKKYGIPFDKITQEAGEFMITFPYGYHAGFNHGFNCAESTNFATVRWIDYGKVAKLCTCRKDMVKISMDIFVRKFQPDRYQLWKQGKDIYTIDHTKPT
Experimental: (§1) The compounds of the application, or a pharmaceutically acceptable salt, or solvate, or prodrug thereof, are tested in an in vitro AlphaLISA assay. Enzymes are dissolved in enzyme buffer and incubated before they are added to DMSO solutions of compounds of the application, or a pharmaceutically acceptable salt, or solvate, or prodrug thereof, in enzyme buffer. The reaction mixture is then incubated for an additional period of time before substrate solution is added and then the resulting mixture again incubated. Acceptor beads and suspended Epigenetic Buffer from stock are added and the suspension is again incubated before a suspension of streptavidin donor beads in Epigenetic Buffer is added. After an additional period of incubation, the plates are read.
(§2) The ability of compounds of the application to inhibit the histone lysine demethylase activity in vitro of different enzymes was determined.
(§3) The reaction mixture was incubated for another 10 minutes before 5 μL of substrate solution was added and the resulting mixture was then incubated at room temperature. […] After incubation at room temperature in the dark, the plates were read.
(§4) Enzyme Buffer: 50 mM Hepes (pH 7.4-8.0), 0.003-0.01% Tween-20, 0.1% BSA; 5 μM (NH4)2Fe(SO4)2.

KDM2B (FBXL10) = target: T2, KDM2B (FBXL10) (Homo sapiens, UniProt Q8NHM5); experiment: Histone lysine demethylase AlphaLISA assay, KDM2B
T2 construct: KDM2B; BPS,; 1-650; Bac; purchased BPS Bioscience, US; host or cells: baculovirus system
T2 sequence (Q8NHM5 1-650): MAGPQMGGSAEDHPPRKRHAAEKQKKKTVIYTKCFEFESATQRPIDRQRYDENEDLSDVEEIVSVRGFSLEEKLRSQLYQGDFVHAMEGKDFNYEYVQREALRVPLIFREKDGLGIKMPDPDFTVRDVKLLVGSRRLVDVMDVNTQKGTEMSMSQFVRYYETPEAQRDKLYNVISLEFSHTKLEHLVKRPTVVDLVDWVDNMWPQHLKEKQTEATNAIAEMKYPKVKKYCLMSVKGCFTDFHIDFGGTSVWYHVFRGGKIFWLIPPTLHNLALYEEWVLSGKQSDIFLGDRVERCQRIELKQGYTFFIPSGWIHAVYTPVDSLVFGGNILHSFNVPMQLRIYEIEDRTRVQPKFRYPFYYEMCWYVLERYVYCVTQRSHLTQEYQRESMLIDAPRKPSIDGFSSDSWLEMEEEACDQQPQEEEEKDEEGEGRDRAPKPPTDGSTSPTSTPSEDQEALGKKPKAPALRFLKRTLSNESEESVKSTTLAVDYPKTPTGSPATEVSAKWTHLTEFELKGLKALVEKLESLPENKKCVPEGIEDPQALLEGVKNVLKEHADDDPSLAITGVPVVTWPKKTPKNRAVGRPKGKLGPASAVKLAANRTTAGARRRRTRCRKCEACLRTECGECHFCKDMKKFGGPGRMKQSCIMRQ
Experimental: as §1, §2, §3, §4

PHF8 (KDM7) = target: T3, PHF8 (KDM7) (Homo sapiens, UniProt Q9UPP1); experiment: Histone lysine demethylase AlphaLISA assay, PHF8
T3 construct: KDM7 (PHF8); BRIC; 1-1322; Bac
T3 sequence (Q9UPP1 37-440 limits assumed): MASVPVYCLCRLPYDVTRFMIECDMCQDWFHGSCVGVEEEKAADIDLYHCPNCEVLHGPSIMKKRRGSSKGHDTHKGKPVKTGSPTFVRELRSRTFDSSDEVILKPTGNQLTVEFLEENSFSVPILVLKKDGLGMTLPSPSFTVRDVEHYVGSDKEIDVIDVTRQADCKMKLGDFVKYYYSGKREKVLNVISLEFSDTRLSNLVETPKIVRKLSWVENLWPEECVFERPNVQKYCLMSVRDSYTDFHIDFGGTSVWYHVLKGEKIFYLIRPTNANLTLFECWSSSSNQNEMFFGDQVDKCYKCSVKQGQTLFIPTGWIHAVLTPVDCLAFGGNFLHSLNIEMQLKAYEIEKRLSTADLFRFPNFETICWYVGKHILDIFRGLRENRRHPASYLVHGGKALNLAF
Experimental: as §1, §2, §3, §4

KDM5B (PLU-1) = target: T4, KDM5B (PLU-1) (Homo sapiens, UniProt Q9UGL1); experiment: Histone lysine demethylase AlphaLISA assay, KDM5B
T4 construct: BRIC; 1-809; E. coli; host or cells: E. coli
T4 sequence (Q9UGL1 1-809): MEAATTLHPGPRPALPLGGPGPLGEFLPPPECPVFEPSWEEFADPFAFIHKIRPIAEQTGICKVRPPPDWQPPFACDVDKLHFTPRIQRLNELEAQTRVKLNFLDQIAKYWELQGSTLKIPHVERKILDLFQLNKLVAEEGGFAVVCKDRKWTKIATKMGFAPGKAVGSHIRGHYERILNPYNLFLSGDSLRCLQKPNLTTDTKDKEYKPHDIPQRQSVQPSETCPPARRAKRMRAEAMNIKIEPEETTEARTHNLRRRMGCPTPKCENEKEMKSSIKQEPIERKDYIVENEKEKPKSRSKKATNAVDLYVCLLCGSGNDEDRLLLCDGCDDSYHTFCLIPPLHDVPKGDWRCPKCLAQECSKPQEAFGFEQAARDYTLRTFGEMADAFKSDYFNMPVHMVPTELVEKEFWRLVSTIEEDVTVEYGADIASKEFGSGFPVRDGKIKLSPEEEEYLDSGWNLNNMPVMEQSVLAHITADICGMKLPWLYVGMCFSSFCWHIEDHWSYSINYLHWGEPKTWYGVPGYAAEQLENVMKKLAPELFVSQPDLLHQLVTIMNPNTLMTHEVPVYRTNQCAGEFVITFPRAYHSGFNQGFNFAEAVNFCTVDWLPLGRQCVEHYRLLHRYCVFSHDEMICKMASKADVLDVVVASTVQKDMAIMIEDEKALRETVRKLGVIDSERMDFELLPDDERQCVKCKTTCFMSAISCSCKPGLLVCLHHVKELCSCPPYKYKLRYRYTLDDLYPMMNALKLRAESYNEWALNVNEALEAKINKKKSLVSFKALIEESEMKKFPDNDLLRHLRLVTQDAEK
Experimental: as §1, §2, §3, §4

[1] = AlphaLISA assay, read-out: HDME Inhibition KDM4C (IC50)
[2] = AlphaLISA, in vitro, read-out: HDME Inhibition KDM4C
[3] = AlphaLISA, in vitro, read-out: HDME Inhibition KDM2B
[4] = AlphaLISA assay, read-out: HDME Inhibition PHF8 (IC50)
[5] = AlphaLISA, in vitro, read-out: HDME Inhibition PHF8
[6] = AlphaLISA assay, read-out: HDME Inhibition KDM5B (IC50)
[7] = AlphaLISA, in vitro, read-out: HDME Inhibition KDM5B

Row | Structure (SMILES) | pIC50 (KDM4C (JMJD2C); [1]) | pIC50 (KDM4C (JMJD2C); [2]) | pIC50 (KDM2B (FBXL10); AlphaLISA assay, read-out: HDME Inhibition KDM2B (IC50)) | pIC50 (KDM2B (FBXL10); [3]) | pIC50 (PHF8 (KDM7); [4]) | pIC50 (PHF8 (KDM7); [5]) | pIC50 (KDM5B (PLU-1); [6]) | pIC50 (KDM5B (PLU-1); [7])
1 | Cc1cc(C(=O)O)cc(CNCc2nccn2Cc2cccc(CN)c2)n1 [Compound 48, 2-({[(1-{[3-(aminomethyl)phenyl]methyl}-1H-imidazol-2-yl)methyl]amino}methyl)-6-methylpyridine-4-carboxylic acid] | < 5.00 | < 5.00 | < 5.00 | < 5.00 | < 5.00 | < 5.00 | < 5.00 | < 5.00
2 | Cc1cc(C(=O)O)cc(CNCc2ncc(CCC(N)=O)n2Cc2ccc(F)cc2)n1 [Compound 114, 2-[({[5-(2-carbamoylethyl)-1-[(4-fluorophenyl)methyl]-1H-imidazol-2-yl]methyl}amino)methyl]-6-methylpyridine-4-carboxylic acid] | < 5.00 | < 5.00 | – | 6.50 | – | 5.94 | < 5.00 | < 5.00
3 | O=C(O)c1cc(CO)nc(CNCc2nnc(-c3cccs3)n2CCCc2ccccc2)c1 [Compound 95, 2-(hydroxymethyl)-6-[({[4-(3-phenylpropyl)-5-(thiophen-2-yl)-4H-1,2,4-triazol-3-yl]methyl}amino}methyl]pyridine-4-carboxylic acid] | < 5.00 | < 5.00 | – | 6.41 | – | 5.02 | < 5.00 | < 5.00
4 | CCc1cnc(CNCc2cc(C(=O)O)cc(C)n2)n1CCCC(C)C [Compound 91, 2-[({[5-ethyl-1-(4-methylpentyl)-1H-imidazol-2-yl]methyl}amino)methyl]-6-methylpyridine-4-carboxylic acid] | < 5.00 | < 5.00 | – | 6.48 | – | 5.95 | < 5.00 | < 5.00
5 | CCN(CCN(C)C)C(=O)CNCc1cc(C(=O)O)cc(CO)n1 [Compound 102, 2-{[({[2-(dimethylamino)ethyl](ethyl)carbamoyl}methyl)amino]methyl}-6-(hydroxymethyl)pyridine-4-carboxylic acid] | – | 5.15 | – | 6.62 | < 5.00 | < 5.00 | – | 7.70
6 | Cc1cc(C(=O)O)cc(CNCc2nccn2CCc2ccccc2)n1 [Compound 61, 2-methyl-6-[({[1-(2-phenylethyl)-1H-imidazol-2-yl]methyl}amino)methyl]pyridine-4-carboxylic acid] | < 5.00 | < 5.00 | – | 5.38 | – | 5.59 | < 5.00 | < 5.00
7 | Cc1cc(C(=O)O)cc(CNCCc2nncn2Cc2ccc(C(F)(F)F)cc2)n1 [Compound 60, 2-methyl-6-({[2-(4-{[4-(trifluoromethyl)phenyl]methyl}-4H-1,2,4-triazol-3-yl)ethyl]amino}methyl)pyridine-4-carboxylic acid] | < 5.00 | < 5.00 | – | 5.79 | < 5.00 | < 5.00 | – | 6.28
8 | Cc1cc(C(=O)O)cc(CNCc2nnc(C3CCC3)n2Cc2ccc(F)cc2)n1 [Compound 45, 2-{[({5-cyclobutyl-4-[(4-fluorophenyl)methyl]-4H-1,2,4-triazol-3-yl}methyl)amino]methyl}-6-methylpyridine-4-carboxylic acid] | < 5.00 | < 5.00 | – | 6.30 | – | 6.31 | < 5.00 | < 5.00
9 | CSc1cnc(CNCc2cc(C(=O)O)cc(C)n2)n1Cc1ccc(F)cc1 [Compound 43, 2-{[({1-[(4-fluorophenyl)methyl]-5-(methylsulfanyl)-1H-imidazol-2-yl}methyl)amino]methyl}-6-methyl pyridine-4-carboxylic acid] | < 5.00 | < 5.00 | – | 6.35 | – | 6.06 | < 5.00 | < 5.00
10 | CC#CCc1cnc(CNCc2cc(C(=O)O)cc(C)n2)n1Cc1ccc(F)cc1 [Compound 112, 2-[({[5-(but-2-yn-1-yl)-1-[(4-fluorophenyl)methyl]-1H-imidazol-2-yl]methyl}amino)methyl]-6-methylpyridine-4-carboxylic acid] | < 5.00 | < 5.00 | – | 6.43 | – | 5.45 | < 5.00 | < 5.00
11 | COc1ccc(OCCc2ccccc2)c(CCNCc2cc(C(=O)O)cc(CO)n2)n1 [Compound 107, 2-(hydroxymethyl)-6-[({2-[6-methoxy-3-(2-phenylethoxy)pyridin-2-yl]ethyl}amino)methyl]pyridine-4-carboxylic acid] | < 5.00 | < 5.00 | – | 5.29 | < 5.00 | < 5.00 | < 5.00 | < 5.00
12 | CCc1nnc(CNCc2cc(C(=O)O)cc(C)n2)n1CCCc1ccccc1 [Compound 90, 2-[({[5-ethyl-4-(3-phenylpropyl)-4H-1,2,4-triazol-3-yl]methyl}amino)methyl]-6-methylpyridine-4-carboxylic acid] | < 5.00 | < 5.00 | – | 5.53 | – | 5.16 | < 5.00 | < 5.00
13 | C/C=C/c1cnc(CNCc2cc(C(=O)O)cc(C)n2)n1Cc1ccc(F)cc1 [Compound 42, 2-{[({1-[(4-fluorophenyl)methyl]-5-[(1E)-prop-1-en-1-yl]-1H-imidazol-2-yl}methyl)amino]methyl}-6-methylpyridine-4-carboxylic acid] | < 5.00 | < 5.00 | – | 6.18 | – | 6.07 | < 5.00 | < 5.00
